Experimental data as given in patent US8552021B2, “Phosphoramidate derivatives of nucleosides” (Janssen Products, L.P., priority 2009, dated 2013).
Where two headings read alike, the source gives them in different places.

How the values were obtained:
Format in all cases: cell-based
[1] = tested on: HCV type 1b replicon in Huh-7 luc/neo (Huh-Luc) cells; experiment: HCV replicon assay (Huh-Luc luciferase); settings: three days incubation, luciferase activity, average where tested more than once, read-out: EC50 1b ET
Text: The compounds of formula I are examined for activity in the inhibition of HCV RNA replication in a cellular assay. […] The cellular assay can be based on a bicistronic expression construct, as described by Lohmann et al. (1999) Science vol. 285 pp. 110-113 with modifications described by Krieger et al. (2001) Journal of Virology 75: 4614-4624, in a multi-target screening strategy. The Bartenschlager replicon assays are available commercially from ReBLikon GmbH in Mainz, Germany.
In essence, the method is as follows.
The assay utilized the stably transfected cell line Huh-7 luc/neo (hereafter referred to as Huh-Luc). This cell line harbors an RNA encoding a bicistronic expression construct comprising the wild type NS3—NS5B regions of HCV type 1b translated from an Internal Ribosome Entry Site (IRES) from encephalomyocarditis virus (EMCV), preceded by a reporter portion (FfL-luciferase), and a selectable marker portion (neo^R, neomycine phosphotransferase). The construct is bordered by 5′ and 3′ NTRs (non-translated regions) from HCV type lb. Continued culture of the replicon cells in the presence of G418 (neo^R) is dependent on the replication of the HCV RNA. The stably transfected replicon cells that express HCV RNA, which replicates autonomously and to high levels, encoding inter alia luciferase, are used for screening the antiviral compounds.
The replicon cells were plated in well plates in the presence of the test and control compounds, which were added in various concentrations. Following an incubation of three days, HCV replication was measured by assaying luciferase activity (using standard luciferase assay substrates and reagents and a Perkin Elmer ViewLux™ ultraHTS microplate imager). Replicon cells in the control cultures have high luciferase expression in the absence of any inhibitor. The inhibitory activity of the compound on luciferase activity was monitored on the Huh-Luc cells, enabling a dose-response curve for each test compound. EC50 values were then calculated, which value represents the amount of the compound required to decrease by 50% the level of detected luciferase activity, or more specifically, the ability of the genetically linked HCV replicon RNA to replicate. Where a compound of formula (I) was tested more than once in the replicon assay, the average of all test results is given in Table 1.

[2] = tested on: Huh-7; experiment: Cytotoxicity CC50 in Huh-7; settings: Huh-7 cells
Text: (§1) The in vitro antiviral activity against HCV of the compounds of formula I can be tested in a cellular HCV replicon system based on Lohmann et al. (1999) Science 285:110-113, with the further modifications described by Krieger et al. (2001) Journal of Virology 75: 4614-4624 (incorporated herein by reference), which is further exemplified in the examples section. This model, while not a complete infection model for HCV, is widely accepted as the most robust and efficient model of autonomous HCV RNA replication currently available. […] It will be appreciated that it is important to distinguish between compounds that specifically interfere with HCV functions from those that exert cytotoxic or cytostatic effects in the HCV replicon model, and as a consequence cause a decrease in HCV RNA or linked reporter enzyme concentration. Assays are known in the field for the evaluation of cellular cytotoxicity based for example on the activity of mitochondrial enzymes using fluorogenic redox dyes such as resazurin. Furthermore, cellular counter screens exist for the evaluation of non-selective inhibition of linked reporter gene activity, such as firefly luciferase. Appropriate cell types can be equipped by stable transfection with a luciferase reporter gene whose expression is dependent on a constitutively active gene promoter, and such cells can be used as a counter-screen to eliminate non-selective inhibitors.

[3] = Cytotoxicity CC50 in Huh-7; settings: human; Huh-7 cells
Text: as §1

SMILES	EC50 [1] [µM]	CC50 [2] [µM]	EC50 ([1]; Hepatitis C virus, Huh-7, 72 h) [µM]	CC50 [3] [µM]
CCCC(CCC)COC(=O)[C@H](C)NP(=O)(O)OC[C@@]1(N=[N+]=[N-])O[C@@H](n2ccc(=O)[nH]c2=O)[C@@H](C)[C@@H]1O [Compound I-9]	15.8			
CCOC(=O)[C@H](C)NP(=O)(OC[C@@]1(N=[N+]=[N-])O[C@@H](n2ccc(=O)[nH]c2=O)[C@@H](C)[C@@H]1O)Oc1ccccc1 (single isomer, unassigned) [Compound I-8]	12	> 98.3		
CC(NP(=O)(OC[C@@]1(N=[N+]=[N-])O[C@@H](n2ccc(=O)[nH]c2=O)[C@@H](C)[C@@H]1O)Oc1ccccc1)C(=O)OC(C)(C)C (stereo partly shown) [Compound I-31]			> 98.4	> 98.4
C[C@@H]1[C@H](n2ccc(=O)[nH]c2=O)O[C@@](COP(=O)(NC(C)(C)C(=O)OCc2ccccc2)Oc2ccccc2)(N=[N+]=[N-])[C@H]1O (stereo partly shown) [Compound I-12]			13.9	> 100
CCC(NP(=O)(O)OC[C@@]1(N=[N+]=[N-])O[C@@H](n2ccc(=O)[nH]c2=O)[C@@H](C)[C@@H]1O)C(=O)OC (stereo partly shown) [Compound I-29]			> 98.4	> 98.4
CC(NP(=O)(OC[C@@]1(N=[N+]=[N-])O[C@@H](n2ccc(=O)[nH]c2=O)[C@@H](C)[C@@H]1O)Oc1ccccc1)C(=O)OC1CCCC1 (stereo partly shown) [Compound I-6]			10.5	> 98.3
CCCCCOC(=O)C(C)NP(=O)(OC[C@@]1(N=[N+]=[N-])O[C@@H](n2ccc(=O)[nH]c2=O)[C@@H](C)[C@@H]1O)Oc1ccccc1 (stereo partly shown) [Compound I-5]			9.48	> 98.3
CCC(NP(=O)(O)OC[C@@]1(N=[N+]=[N-])O[C@@H](n2ccc(=O)[nH]c2=O)[C@@H](C)[C@@H]1O)C(=O)OCc1ccccc1 (stereo partly shown) [Compound I-33]			> 98.4	
CCCCOC(=O)C(CC)NP(=O)(OC[C@@]1(N=[N+]=[N-])O[C@@H](n2ccc(=O)[nH]c2=O)[C@@H](C)[C@@H]1O)Oc1ccccc1 (stereo partly shown) [Compound I-20]			28	> 73.9
CC(NP(=O)(OC[C@@]1(N=[N+]=[N-])O[C@@H](n2ccc(=O)[nH]c2=O)[C@@H](C)[C@@H]1O)Oc1ccccc1)C(=O)OC1CCCCC1 (stereo partly shown) [Compound I-7]			11.2	> 98.3
CCC(NP(=O)(OC[C@@]1(N=[N+]=[N-])O[C@@H](n2ccc(=O)[nH]c2=O)[C@@H](C)[C@@H]1O)Oc1ccccc1)C(=O)OC (stereo partly shown) [Compound I-26]			74.7	> 98.3
CC(NP(=O)(OC[C@@]1(N=[N+]=[N-])O[C@@H](n2ccc(=O)[nH]c2=O)[C@@H](C)[C@@H]1O)Oc1ccccc1)C(=O)OCc1ccccc1 (stereo partly shown) [Compound I-1]			5.95	> 100
CCOC(=O)C(C)NP(=O)(OCC1(N=[N+]=[N-])OC(n2ccc(=O)[nH]c2=O)C(C)C1O)Oc1cc(C)c(Cl)cc1C(C)C (mixture of isomers) [Compound I-24]	37.7	55		
CCOC(=O)C(C)NP(=O)(OCC1(N=[N+]=[N-])OC(n2ccc(=O)[nH]c2=O)C(C)C1O)Oc1ccccc1 (mixture of isomers) [Compound I-16]	16.4	> 98.3		
CCC(NP(=O)(O)OC[C@@]1(N=[N+]=[N-])O[C@@H](n2ccc(=O)[nH]c2=O)[C@@H](C)[C@@H]1O)C(=O)OC(C)C (stereo partly shown) [Compound I-27]			> 98.4	
CCCC(CCC)COC(=O)C(C)NP(=O)(OCC1(N=[N+]=[N-])OC(n2ccc(=O)[nH]c2=O)C(C)C1O)Oc1ccc(Cl)cc1 (mixture of isomers) [Compound I-15]	15.3	> 100		

SMILES	EC50 [1] [µM]	CC50 [2] [µM]	EC50 ([1]; Hepatitis C virus, Huh-7, 72 h) [µM]	CC50 [3] [µM]
CCCCOC(=O)C(C)(C)NP(=O)(O)OC[C@@]1(N=[N+]=[N-])O[C@@H](n2ccc(=O)[nH]c2=O)[C@@H](C)[C@@H]1O [Compound I-32]			> 98.4	
CC(C)OC(=O)C(C)(C)NP(=O)(OC[C@@]1(N=[N+]=[N-])O[C@@H](n2ccc(=O)[nH]c2=O)[C@@H](C)[C@@H]1O)Oc1ccccc1 (stereo partly shown) [Compound I-28]			> 98.4	> 98.4
CCCOC(=O)C(C)NP(=O)(O)OC[C@@]1(N=[N+]=[N-])O[C@@H](n2ccc(=O)[nH]c2=O)[C@@H](C)[C@@H]1O (stereo partly shown) [Compound I-30]			> 98.4	> 98.4
CCCOC(=O)C(C)NP(=O)(OC[C@@]1(N=[N+]=[N-])O[C@@H](n2ccc(=O)[nH]c2=O)[C@@H](C)[C@@H]1O)Oc1ccccc1 (stereo partly shown) [Compound I-10]			12.9	> 98.3
C[C@@H]1[C@H](n2cc(I)c(=O)[nH]c2=O)O[C@@](COP(=O)(N[C@@H](C)C(=O)OCc2ccccc2)Oc2ccccc2)(N=[N+]=[N-])[C@H]1O (stereo partly shown) [Compound I-25]			57.3	> 98.3
CCOC(=O)[C@H](C)NP(=O)(OC[C@@]1(N=[N+]=[N-])O[C@@H](n2ccc(=O)[nH]c2=O)[C@@H](C)[C@@H]1O)Oc1ccccc1 (single isomer, unassigned) [Compound I-17]	17.3	> 98.3		
CCCCOC(=O)C(C)(C)NP(=O)(OC[C@@]1(N=[N+]=[N-])O[C@@H](n2ccc(=O)[nH]c2=O)[C@@H](C)[C@@H]1O)Oc1ccccc1 (stereo partly shown) [Compound I-13]			13.1	88.5
CC(C)OC(=O)C(C)NP(=O)(OC[C@@]1(N=[N+]=[N-])O[C@@H](n2ccc(=O)[nH]c2=O)[C@@H](C)[C@@H]1O)Oc1ccccc1 (stereo partly shown) [Compound I-14]			14.9	> 100
CCC(NP(=O)(OC[C@@]1(N=[N+]=[N-])O[C@@H](n2ccc(=O)[nH]c2=O)[C@@H](C)[C@@H]1O)Oc1ccccc1)C(=O)OC(C)C (stereo partly shown) [Compound I-34]			> 98.4	> 98.4
COCCOC(=O)C(C)NP(=O)(OCC1(N=[N+]=[N-])OC(n2ccc(=O)[nH]c2=O)C(C)C1O)Oc1ccccc1 (mixture of isomers) [Compound I-23]	32.1	> 98.3		
CCCCOC(=O)C(C)NP(=O)(OC[C@@]1(N=[N+]=[N-])O[C@@H](n2ccc(=O)[nH]c2=O)[C@@H](C)[C@@H]1O)Oc1ccccc1 (stereo partly shown) [Compound I-4]			9.33	> 98.3
CCC(NP(=O)(OC[C@@]1(N=[N+]=[N-])O[C@@H](n2ccc(=O)[nH]c2=O)[C@@H](C)[C@@H]1O)Oc1ccccc1)C(=O)OCc1ccccc1 (stereo partly shown) [Compound I-21]			29.2	81.8
CCCC(CCC)COC(=O)C(C)NP(=O)(OCC1(N=[N+]=[N-])OC(n2ccc(=O)[nH]c2=O)C(C)C1O)Oc1ccccc1 (mixture of isomers) [Compound I-3]	8.06	30.7		
CC(NP(=O)(OCC1(N=[N+]=[N-])OC(n2ccc(=O)[nH]c2=O)C(C)C1O)Oc1cccc2ccccc12)C(=O)OCc1ccccc1 (mixture of isomers) [Compound I-11]	13.8	> 100		
COC(=O)C(C)NP(=O)(OC[C@@]1(N=[N+]=[N-])O[C@@H](n2ccc(=O)[nH]c2=O)[C@@H](C)[C@@H]1O)Oc1ccccc1 (stereo partly shown) [Compound I-18]			27	> 98.3
